This note sets out measurements from US12209074B2, “SHP2 phosphatase allosteric inhibitor” (BEIJING SHENOGEN PHARMA GROUP LTD., priority 2019, dated 2025).

Structures are written as SMILES. Bounds are passed on as bounds.

In one experiment the target is SHP2 (Homo sapiens (Human), UniProt Q06124). Briefly: Detection of in vitro SHP2 protein activity by DiFMUP fluorescence. The class given is biochemical. Particulars: read-out: Phosphatase activity SHP2 IC50; DiFMUP substrate, fluorescence Ex340/Em450, 60 min pre-incubation with polypeptide; read-out: Proteinase activity SHP2 IC50. The source says: The screening method of SHP2 protein activity was established by fluorescence detection. The basic principle is: SHP2 as phosphatase can catalyze the dephosphorization of DiFMUP to form DiFMU and free phosphate groups. The product DiFMU emits fluorescence under 340 nm excitation, and 450 nm emission is collected. If the binding of small molecule compounds with SHP2 can inhibit the activity of SHP2 enzyme, the 450 nm emission light detected will be weakened, and the activity of SHP2 enzyme will be finally reflected by the intensity of fluorescence value.
The specific operation was as follows: the 10 mM compound stock solution was diluted to 1 mM with DMSO, and then diluted 3 times with DMSO. 95 μL reaction buffer (60 mM HEPES), 75 mM NaCl, 75 mM KCl, 1 mM EDTA, 5 mM DTT, 1 μL gradient diluted compound, 2 μL SHP2 (concentration was 2 μg/μL) and 1 μL polypeptide (concentration was 50 mM) were added into each well of a 96 well flat clear bottom black plate (costar, 3603). The above test mixture was incubated at room temperature in dark for 60 minutes. Then 2 μL of 10 mM DiFMUP was added into each well, and was incubated at room temperature for 30 minutes. Fluorescence value was determined in the enzyme reader at Ex340/Em450. IC50 of the compounds was obtained by the data analysis software Prism.

The test system of experiment [1] is Human non-small cell lung cancer NCI-H358. As to the kind of experiment: Cell proliferation assay (CellTiter-Glu) in NCI-H358. Conditions: 5 days, NCI-H358 cells, cell viability by CellTiter-Glu, compound 0.3 nM-2 μM, medium and compound renewed after 3 days. The class given is cell-based. As to the method:
Cell proliferation inhibition screening method was established by CellTier-Glu® test reagent from Promega.
Human non-small cell lung cancer NCI-H358 was cultured by RPMI-1640 (Gibco®) medium with 10% fetal bovine serum (Gibco®) at 37° C., 95% air and 5% CO2, in 25 cm^2 or 75 cm^2 plastic culture bottle ((Nunc®) and passaged 2-3 times a week.
The cells were seeded on the 96 well cell culture plate (Nunc®) at the density of 2*10^3/well, 90 μL/well, and cultured at 37° C., 95% air and 5% CO2. The compound to be tested was added 24 hours later: the compound was diluted 3 times with DMSO from the concentration of 2 mM compound (dissolved in DMSO). […] 10 μL of the compound diluted by culture medium was added into the culture plate seeded with cells. The final concentration of DMSO in cell culture medium was 0.1%, and the final concentration of test compound was 0.3 nM-2 μM. The cells were incubated at 37° C. for 3 days. The culture medium was substituted with 90 μL/well fresh complete medium. According to the above diluting method of compounds, the compound to be tested was added.
After 5 days, cell viability was tested by CellTiter-Glu (Promega) kit, and finally, the semi-inhibitory concentration of compounds on cell proliferation, i.e. IC50 was calculated by Prism program.

A further experiment concerns the target hERG channel (Homo sapiens (Human), UniProt Q12809). As to the kind of experiment: hERG inhibitory activity, whole cell patch clamp in hERG-transfected HEK293 cells. In kind it is cell-based. Particulars: HEK293 cells transfected with hERG, tail current, tested at 30, 10, 2, 0.5, 0.1 μM. How it is done: Patch Clamp Amplifier System (Multiclamp 700B Amplifier) (AXON), Olympus microscope (Olympus IX51/71/73), and MP285 micromanipulator were used.
HEK293 cell line for transfecting hERG was purchased from Invitrogen Company. The cells were grown in the culture medium with 85% DMEM, 10% fetal bovine serum, 0.1 mM NEAA, 25 mM HEPES buffer, 100 U/mL penicillin-streptomycin, 5 μg/mL blasticidin and 400 μg/mL G418 geneticin.
The cells were passaged three times a week and digested with TrypLE Express to maintain a fusion degree of about 40% to 80%. Before testing, the cells were seeded at the density of 5*10^5 cells/petri dish with a diameter of 6 cm and the cells were induced with 1 μg/ml doxycycline for 48 hours.
The test concentration of the compound solution was 30, 10, 2, 0.5, 0.1 μM after 1000-fold dilution and the final concentration of DMSO was in the range of 0.1%.
The manipulator was adjusted to move the electrode tip to the cell surface to form a high sealing. Liquid connection potential and fast capacitance were compensated, and the cell membrane was broken to form a whole cell recording mode. The membrane potential was set as −60 mV to ensure that the HERG channel was not opened. Cslow on the amplifier was used to eliminate the peak of capacity current. Holding voltage was set as […]. The leakage current test was performed at −80 mV for 500 ms. +30 mV was depolarized for 4.8 seconds, and HERG channel was activated. The voltage was restored to −50 mV for 5.2 seconds, and the tail current was observed. Peak current suppression=[1−(peak tail currentinhibitor−peak tail currentpositive control)/(peak tail currentblank−peak tail currentpositive control)]*100
The dose response curve of hERG current inhibition rate versus the concentration of the tested compound was plotted by using Graphpad Prism 8.0 software.
On the technique in general: hERG is a cardiac potassium channel; its block is linked to QT prolongation.

Sequence of hERG channel (Q12809 whole entry): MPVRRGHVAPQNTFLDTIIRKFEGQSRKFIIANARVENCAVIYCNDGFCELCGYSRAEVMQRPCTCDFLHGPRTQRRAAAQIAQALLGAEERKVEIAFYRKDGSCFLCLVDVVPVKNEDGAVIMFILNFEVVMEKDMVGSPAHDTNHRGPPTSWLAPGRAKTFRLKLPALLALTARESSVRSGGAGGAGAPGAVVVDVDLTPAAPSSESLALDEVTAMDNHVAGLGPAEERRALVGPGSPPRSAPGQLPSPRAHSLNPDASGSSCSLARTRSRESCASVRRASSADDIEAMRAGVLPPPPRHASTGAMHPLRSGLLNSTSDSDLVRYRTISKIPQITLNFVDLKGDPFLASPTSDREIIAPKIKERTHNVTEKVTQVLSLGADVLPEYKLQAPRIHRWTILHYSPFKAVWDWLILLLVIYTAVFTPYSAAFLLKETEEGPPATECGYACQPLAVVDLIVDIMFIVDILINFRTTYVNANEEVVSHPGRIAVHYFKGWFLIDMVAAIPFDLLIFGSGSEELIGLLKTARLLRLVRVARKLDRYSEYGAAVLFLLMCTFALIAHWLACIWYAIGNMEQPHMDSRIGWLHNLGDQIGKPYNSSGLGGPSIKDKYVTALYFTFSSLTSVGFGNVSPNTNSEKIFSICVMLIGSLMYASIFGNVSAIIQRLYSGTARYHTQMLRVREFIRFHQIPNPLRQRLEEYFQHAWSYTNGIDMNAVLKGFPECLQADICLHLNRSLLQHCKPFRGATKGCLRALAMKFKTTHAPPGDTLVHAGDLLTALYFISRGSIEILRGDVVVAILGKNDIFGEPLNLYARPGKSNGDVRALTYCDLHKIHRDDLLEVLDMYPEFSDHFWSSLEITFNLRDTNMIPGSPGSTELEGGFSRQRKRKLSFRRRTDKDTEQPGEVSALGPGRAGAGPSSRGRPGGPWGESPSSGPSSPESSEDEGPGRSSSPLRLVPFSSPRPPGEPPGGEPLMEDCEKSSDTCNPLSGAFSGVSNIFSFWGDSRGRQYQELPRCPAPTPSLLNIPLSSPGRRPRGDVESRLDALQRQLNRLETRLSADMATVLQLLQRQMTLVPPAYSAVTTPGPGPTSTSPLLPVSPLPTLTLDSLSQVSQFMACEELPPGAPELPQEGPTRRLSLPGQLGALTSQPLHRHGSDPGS
Sequence of SHP2 (Q06124 whole entry, species assumed): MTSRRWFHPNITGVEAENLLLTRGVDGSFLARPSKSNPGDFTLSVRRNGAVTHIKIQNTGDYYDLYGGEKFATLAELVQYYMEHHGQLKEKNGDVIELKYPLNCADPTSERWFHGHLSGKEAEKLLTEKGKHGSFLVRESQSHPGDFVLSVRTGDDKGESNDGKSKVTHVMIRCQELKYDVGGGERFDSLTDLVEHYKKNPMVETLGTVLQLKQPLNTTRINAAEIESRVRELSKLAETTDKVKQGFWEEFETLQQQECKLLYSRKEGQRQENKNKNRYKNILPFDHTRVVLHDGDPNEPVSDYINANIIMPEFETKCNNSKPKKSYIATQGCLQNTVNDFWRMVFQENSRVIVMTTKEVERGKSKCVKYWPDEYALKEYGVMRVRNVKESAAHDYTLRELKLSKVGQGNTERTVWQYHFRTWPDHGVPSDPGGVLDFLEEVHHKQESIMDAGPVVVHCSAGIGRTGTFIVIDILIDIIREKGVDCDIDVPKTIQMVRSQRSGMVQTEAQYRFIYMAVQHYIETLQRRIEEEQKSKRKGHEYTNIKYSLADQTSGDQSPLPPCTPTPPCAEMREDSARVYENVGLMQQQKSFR

With `Cc1nc(N2CCC3(CC2)Cc2ccccc2[C@H]3N)c(CO)nc1-c1cccc(Cl)c1Cl` [Compound 1, (S)-(3-(1-amino-1,3-dihydrospiro[indene-2,4′-piperidin]-1′-yl)-6-(2,3-dichlorophenyl)-5-methylpyrazin-2-yl)methanol], the IC50 on SHP2 is 9 nM; in experiment [1] it was 88 nM; against hERG channel, less than 100 nM.

As for `Cc1nc(N2CCC3(CC2)Cc2ccc(C#N)cc2[C@H]3N)c(CO)nc1-c1cccc(Cl)c1Cl` [Compound 2, (S)-1-amino-1′-(5-(2,3-dichlorophenyl)-3-(hydroxymethyl)-6-methylpyrazin-2-yl)-1,3-dihydrospiro[indene-2,4′-piperidine]-6-carbonitrile], the IC50 at SHP2 amounted to 35 nM; in experiment [1] it was 84 nM.

Consider `Cc1nc(N2CCC3(CC2)Cc2ncccc2[C@H]3N)c(CO)nc1-c1cccc(Cl)c1Cl` [Compound 13, (S)-(3-(5-amino-5,7-dihydrospiro[cyclopenta[b]pyridine-6,4′-piperidin]-1′-yl)-6-(2,3-dichlorophenyl)-5-methylpyrazin-2-yl)methanol], for which the figures for the IC50 (in experiment [1]; at hERG channel) were 1.6 nM and less than 100 nM, respectively.

Turning to `Cc1ccc2c(c1)[C@@H](N)C1(CCN(c3nc(C)c(-c4ccnc(Cl)c4Cl)nc3CO)CC1)C2` [Compound 21], the IC50 in experiment [1] was determined as 11 nM; on hERG channel, 3030 nM.

For `Cc1nc(N2CCC3(CC2)Cc2ccccc2[C@H]3N)c(CO)nc1-c1cc(N)nc(Cl)c1Cl` [Compound 47], the IC50 was 30 nM in experiment [1] and 4290 nM against hERG channel.

For `Cc1cnc2c(c1)[C@@H](N)C1(CCN(c3nc(C)c(-c4ccnc(Cl)c4Cl)nc3CO)CC1)C2` [Compound 49], the IC50 was determined as 28 nM in experiment [1] and 1800 nM against hERG channel.

Regarding `Cc1ccnc(-c2nc(CO)c(N3CCC4(CC3)Cc3ccccc3[C@H]4N)nc2C)c1Cl` [Compound 55], the IC50 in experiment [1] was more than 1000 nM.

On to `COc1ccc(-c2nc(CO)c(N3CCC4(CC3)Cc3ccccc3[C@H]4N)nc2C)c(Cl)n1` [Compound 56], for which half-maximal inhibition in experiment [1] (IC50) was put at 182 nM.

Compound `Cc1nc(N2CCC3(CC2)Cc2ccccc2[C@H]3N)c(CO)nc1-c1ccc(=O)[nH]c1Cl` [Compound 57] came in with a 50% inhibitory concentration (IC50) in experiment [1] of more than 1000 nM.

In turn, `CNc1cc(Cl)c(-c2nc(CO)c(N3CCC4(CC3)Cc3ccccc3[C@H]4N)nc2C)cn1` [Compound 58] gave an IC50 in experiment [1] of more than 1000 nM.

Compound `CNc1ccc(-c2nc(CO)c(N3CCC4(CC3)Cc3ccccc3[C@H]4N)nc2C)c(Cl)c1C(F)(F)F` [Compound 59] registered an IC50 in experiment [1] of 115 nM.

Take `Cc1cnc2c(c1)[C@@H](N)C1(CCN(c3nc(C)c(-c4ccnc(C)c4Cl)nc3CO)CC1)C2` [Compound 60]: in experiment [1], the IC50 was determined as 75 nM.

For the compound `Cc1cncc(-c2nc(CO)c(N3CCC4(CC3)Cc3ccccc3[C@H]4N)nc2C)c1Cl` [Compound 61], it took 63 nM to reach half-maximal inhibition in experiment [1] (IC50).

Take `Cc1nc(N2CCC3(CC2)Cc2ccccc2[C@H]3N)c(CO)nc1-c1ccnc(C(F)(F)F)c1Cl` [Compound 62]: the IC50 in experiment [1] is 15 nM; against hERG channel, 4230 nM.

`Cc1ccc2c(c1)[C@@H](N)C1(CCN(c3nc(C)c(-c4cc(N)nc(Cl)c4Cl)nc3CO)CC1)C2` [Compound 63] showed an IC50 in experiment [1] of 40 nM.

Consider `Cc1cnc2c(c1)[C@@H](N)C1(CCN(c3nc(C)c(-c4cc(N)nc(Cl)c4Cl)nc3CO)CC1)C2` [Compound 64], for which the IC50 stood at 22 nM in experiment [1] and 6130 nM at hERG channel.

On to `Cc1cnc2c(c1)[C@@H](N)C1(CCN(c3nc(C)c(-c4ccnc(Cl)c4Cl)nc3C(C)O)CC1)C2` (some centres unmarked) [Compound 68], for which inhibition in experiment [1] was half-maximal at 530 nM (IC50).

Take `COc1ccc2c(c1)[C@@H](N)C1(CCN(c3nc(C)c(-c4ccnc(Cl)c4Cl)nc3CO)CC1)C2` [Compound 72]: the IC50 in experiment [1] came out at 65.9 nM; against hERG channel, 2590 nM.

Consider `COc1nccc(-c2nc(CO)c(N3CCC4(CC3)Cc3ncc(C)cc3[C@H]4N)nc2C)c1Cl` [Compound 76], for which the IC50 in experiment [1] turned out to be 25 nM; on hERG channel, 2110 nM.

Consider `Cc1nc(N2CCC3(CC2)Cc2ccccc2[C@H]3N)c(CO)nc1-c1ccnc(C#N)c1Cl` [Compound 77], for which the IC50 in experiment [1] is 33 nM; against hERG channel, 620 nM.

The term IC50 denotes the concentration that gives 50% inhibition.
